These results are taken from paper PMC7251927, “Impact of Acute and Chronic Amyloid-β Peptide Exposure on Gut Microbial Commensals in the Mouse” (Frontiers in Microbiology, 2020).

The nature of data set [1]: Gut transition time of orally administered TAMRA-labeled Aβ. The data set is classed as in vivo, mouse. The conditions noted are these: 10 μg oral; for Gut segment in which TAMRA fluorescence was detected (2 cm sections, 1 = stomach to 12 = rectal): one animal, technical duplicates. Here is the method: (§1) Animals were lightly anesthetized with Isoflurane and 10 μg of peptide or solvent (10 mM NH4OH) administered slowly into the oral cavity. Mice were kept in manual fixation up to ingestion of the fluid to prevent aspiration.
(§2) Animals were deeply anesthetized with isoflurane and sacrificed by decapitation. For microbiome determination, feces pellets close to the rectum were taken. For assessing fluorescence after feeding of TAMRA-labeled Aβ, the whole gut was placed in ice cold isotonic sodium chloride to prevent further peristalsis movement. Segments of 2 cm length were then chopped starting from the stomach, the content collected by longitudinal opening and stored on ice until further use.
After oral application of TAMRA-labeled Aβ or NH4OH as control and sacrifice of the animals 2, 4, or 24 h later, chyme samples were diluted with 500 μl ice cold PBS, incubated for 5 min and centrifuged. Fluorescence was measured by using 50 μl of the supernatant in duplicates (Exc 540 nm and Em 580 nm, FLUOstar Optima, BMG Labtech GmbH, Ortenberg, Germany) at intervals of 1 min over a period of 1 h at 37°C with shaking before every measurement. The mean of the values of the measurements between 15 and 45 min was used to calculate the difference between the TAMRA-labeled Aβ-treated animals and solvent-treated control animals.
FIGURE 2 Stability and time-dependent localization of per os administered Aβ peptides in the murine gastrointestinal tract. (A) TAMRA-labeled Aβ peptide was incubated in two different concentrations [high (H): 0.025 μM; low (L): 0.005 μM] with PBS-diluted gastric content of wild type mice for 2 h at 37°C. Solvent of the peptide was used as a negative control (–). Additionally, samples with PBS instead of chyme were incubated as described (buffer). Proteins were separated on PAA gel and transferred to nitrocellulose. […] (B) To assess the passage of orally administered Aβ peptides, wild type or 5xFAD mice were fed with 10 μg of TAMRA-labeled Aβ peptides and sacrificed at indicated time points. TAMRA-dependent fluorescence was determined in the chyme of 2 cm gut sections numbered from 1 (oral end = stomach) to 12 (rectal section). Values are presented as measured difference between the TAMRA-Aβ-treated animals and solvent-treated control animals (one animal per time point, technical duplicates).

Data set [2] concerns murine fecal microorganisms. Nature of the data set: Bacterial viability assay (BacTiter Glo) on diluted fecal samples. The data set is classed as cell-based, mouse. The conditions noted are these: 2 μM peptide, 10 min incubation, luminescence, n = 13 animals. Here is the method: Freshly collected fecal pellets were suspended in isotonic sodium chloride solution (0.9%, 100 μl/mg) using a hand-held electric stirrer (Xenox, Fähren, Germany). Aliquots of 50 μl were supplemented with 5 μl of peptide solution in 0.4 mM NH4OH buffered in PBS. After 10 min incubation at room temperature under careful mixing for every 2 min, 20 μl of this suspension were added to 4 ml of thioglycollate bouillon (Becton Dickinson GmbH, Heidelberg, Germany) and kept for overnight at […]. The following day, 1 μl of the diluted fecal suspension was spread on Schaedler agar plates (Becton Dickinson GmbH, Heidelberg, Germany) and incubated for 48 h anaerobically (Anoxomat, Mart Microbiology B.V, Drachten, Netherlands). Lastly, colony forming units (CFU) were counted and normalized to controls from the same donor mouse incubated with scrambled peptide.
After incubation of diluted feces samples with Aβ peptide or scrambled control for plating (see above), additional 1:100 dilutions were prepared and viability measured by using the BacTiter Glo assay as indicated by the vendor (Promega, Mannheim, Germany). Relative luminescence was measured and normalized to controls from the same donor mouse incubated with scrambled peptide.
Viability was measured and calculated in percent of scrambled peptide treated samples (n = 13 animals per group,♂ = 6–7, ♀ = 6–7). […]

The next data set relates to Enterobacteriaceae. Briefly: Family-specific cultivation, CFU on Petrifilm plates selective for Enterobacteriaceae. The conditions noted are these: 2 μM, plates 20 h at 37°C. The data set is classed as cell-based, mouse. Here is the method: (§3) For assessing toxic effects of Aβ on specific microbial families, freshly collected feces was suspended and incubated with 2 μM peptide solution as described above. Afterward, feces suspensions were diluted with 0.9% sodium chloride solution for plating 1 ml on 3M^TM-Petrifilm plates specific for Enterobacteriaceae and Lactobacillaceae (3M Deutschland GmbH, Neuss, Germany). Plates were incubated for 20 h at 37°C. CFU were counted and normalized to samples from the same donor mouse incubated with scrambled peptide.
(§4) Viability was measured and calculated in percent of scrambled peptide treated samples (n = 13 animals per group,♂ = 6–7, ♀ = 6–7). […] Subsequently, aliquots of further diluted bacteria suspension were plated on Schaedler agar and incubated anaerobically for 48 h at 37°C. Number of colony forming units (CFU) of samples treated with scrambled peptide control were set to 100% (n = 7 animals per group; ♂ = 3, ♀ = 4). […] Datapoints for individual normalized measurements are shown in each graph (*p < 0.05; **p < 0.01).

A further data set concerns Candida albicans. Details: method as in Soscia et al., 2010. The note with it: single microbial species; ref Soscia et al., 2010; cited from earlier work.
The test system of the next data set is Enterococcus faecalis. Details: method as in Soscia et al., 2010. The conditions noted are these: single microbial species; ref Soscia et al., 2010; cited from earlier work.
Another data set concerns Lactobacillaceae. Nature of the data set: Family-specific cultivation, CFU on Petrifilm plates selective for Lactobacillaceae. The data set is classed as cell-based, mouse. The conditions noted are these: 2 μM, plates 20 h at 37°C, n = 10–11. Here is the method: as §3, §4
A further data set has as its system gut microbiome. Briefly: 16S rDNA sequencing of the gut microbiome after oral peptide application. The data set is classed as in vivo, mouse. The note with it: female wild type mice, 10 μg peptide oral once, feces. Here is the method: as §1, §2

On to “TAMRA-labeled Aβ42: TAMRA-labeled Aβ peptide (AnaSpec) used for detecting gut transition of Aβ”, for which the “Gut segment in which TAMRA fluorescence was detected (2 cm sections, 1 = stomach to 12 = rectal)” value is listed as 11 in data set [1] (5xFAD transgenic mouse, 2 h after treatment); 11 in data set [1] (5xFAD transgenic mouse, 4 h after treatment); 11 in data set [1] (wild type mouse, 4 h after treatment). Besides, the “TAMRA fluorescence signal in chyme of gut segments” value in data set [1] (wild type and 5xFAD mice, 24 h after treatment, any sample) was “No signal could be detected”.

Consider human Aβ1–42 [Aβ42], for which the entries for the “Viability of fecal microorganisms vs scrambled peptide treated samples” value in data set [2] (fecal samples from transgenic 5xFAD mice) and in data set [2] (fecal samples from wild type mice) were “no such toxic effect” and “significantly reduce viability”, respectively. The “Enterobacteriaceae CFU vs scrambled peptide control” value in the data set with Enterobacteriaceae (fecal material from transgenic 5xFAD mice, n = 10–11, p = 0.09) is “non-significant reduction”; in the data set with Enterobacteriaceae (fecal material from wild type mice, n = 10–11), “significantly reduced”. The “Antimicrobial effect on Candida albicans” value in the data set with Candida albicans is given as “antimicrobial effect”. The “Antimicrobial effect on Enterococcus faecalis” value in the data set on Enterococcus faecalis was “antimicrobial effect”. The “Lactobacillaceae CFU vs scrambled peptide control” value with Lactobacillaceae (fecal material from transgenic 5xFAD mice) was “no significant effects”; in the data set on Lactobacillaceae (fecal material from wild type mice), “significantly reduced”. Moreover, in the data set with gut microbiome, the “Beta diversity, Bray–Curtis dissimilarity (CAP), difference vs scrambled Aβ-fed animals” value is “not significant”. Besides, the “Beta diversity, Jaccard distance based ordination (CAP), vs scrambled Aβ-fed animals” value with gut microbiome was “significantly differed”.
